Results on 22 molecules are retold here after patent US10479795B2 (Incyte Corporation, priority 2016, dated 2019).

Where a name gives a salt, the structure may show the parent alone. Read-outs that look alike come from different tables or passages of the source.

Assay [1] deals with PI3Kγ (p110γ) Recombinant Human Protein (Homo sapiens (Human), UniProt P48736). In words: PI3K-γ Scintillation Proximity Assay. In kind it is biochemical. The following applies: read-out: PI3Kγ IC50. In outline: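 Recombinant human p110γ assayed at room temperature in 20 mM MOPS pH 6.7, 10 mM MgCl2, 5 mM DTT, 0.03% CHAPS, 2% DMSO, with 20 μM PIP2 and 2 μM ATP plus [γ-33P]ATP. Product captured on WGA SPA beads overnight and counted; IC50 fitted from % of solvent-control activity versus log inhibitor concentration.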
Chain of PI3Kγ (p110γ) Recombinant Human Protein (P48736 whole entry): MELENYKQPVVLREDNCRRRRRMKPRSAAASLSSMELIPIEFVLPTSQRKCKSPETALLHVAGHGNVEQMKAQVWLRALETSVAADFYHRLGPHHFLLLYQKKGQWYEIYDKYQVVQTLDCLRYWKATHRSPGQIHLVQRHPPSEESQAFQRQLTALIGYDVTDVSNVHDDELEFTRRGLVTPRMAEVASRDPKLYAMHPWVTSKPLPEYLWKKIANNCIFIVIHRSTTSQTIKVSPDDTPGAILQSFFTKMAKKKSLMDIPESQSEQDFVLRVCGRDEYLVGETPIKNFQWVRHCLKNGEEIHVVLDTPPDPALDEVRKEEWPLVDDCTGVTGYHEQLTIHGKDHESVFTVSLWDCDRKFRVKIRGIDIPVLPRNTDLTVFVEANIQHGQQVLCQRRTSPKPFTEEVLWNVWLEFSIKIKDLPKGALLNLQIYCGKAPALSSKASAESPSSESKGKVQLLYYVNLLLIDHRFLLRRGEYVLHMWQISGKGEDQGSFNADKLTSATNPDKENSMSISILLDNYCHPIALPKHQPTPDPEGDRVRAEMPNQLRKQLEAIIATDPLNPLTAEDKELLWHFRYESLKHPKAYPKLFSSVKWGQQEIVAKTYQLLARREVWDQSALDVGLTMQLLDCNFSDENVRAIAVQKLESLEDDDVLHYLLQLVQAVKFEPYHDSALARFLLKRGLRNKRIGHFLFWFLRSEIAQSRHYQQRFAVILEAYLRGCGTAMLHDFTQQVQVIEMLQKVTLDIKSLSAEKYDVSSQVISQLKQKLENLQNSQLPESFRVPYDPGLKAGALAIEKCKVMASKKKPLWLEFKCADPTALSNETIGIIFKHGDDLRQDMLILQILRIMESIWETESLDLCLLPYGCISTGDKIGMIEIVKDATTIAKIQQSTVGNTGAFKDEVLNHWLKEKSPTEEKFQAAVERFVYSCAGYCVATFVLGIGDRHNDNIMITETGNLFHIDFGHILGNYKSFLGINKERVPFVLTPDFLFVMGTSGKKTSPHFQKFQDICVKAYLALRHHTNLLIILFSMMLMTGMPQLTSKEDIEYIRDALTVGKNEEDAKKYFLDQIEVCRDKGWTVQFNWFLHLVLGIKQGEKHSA

Assay [2] addresses PI3Kδ (p110δ/p85α) Recombinant Human Protein (Homo sapiens (Human), UniProt O00329). In words: PI3Kδ Scintillation Proximity Assay. In kind it is biochemical. The procedure, abridged:
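Kinase reaction run at room temperature in 20 mM MOPS pH 6.7, 10 mM MgCl2, 5 mM DTT, 0.03% CHAPS with 20 μM PIP2, 2 μM ATP plus [γ-33P]ATP, 3.4 nM enzyme, 2% DMSO; 120 min. Quenched with WGA SPA beads/EDTA, counted by scintillation; IC50 from % solvent-control activity vs log concentration.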
Background: Scintillation proximity formats need no separation of bound from free tracer.

The subject of assay [3] is Phosphorylated Ribosomal Protein S6 (RPS6). In words: THP-1 RPS6 ELISA Assay. The note with it: THP-1 cells, read-out: PI3Kγ_THP1_RPS6_ELISA IC50. In kind it is cell-based, Human. In outline:
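Serum-starved THP-1 cells were preincubated with a concentration range of compound for 2 h at 37 °C, then stimulated with 10 nM MCP-1 for 15 min. Phospho-RPS6 in lysates was quantified by ELISA at 450 nm. IC50 came from percent inhibition versus log inhibitor concentration.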
On the technique in general: ELISA stands for enzyme-linked immunosorbent assay.

Chain of PI3Kδ (p110δ/p85α) Recombinant Human Protein (O00329 whole entry): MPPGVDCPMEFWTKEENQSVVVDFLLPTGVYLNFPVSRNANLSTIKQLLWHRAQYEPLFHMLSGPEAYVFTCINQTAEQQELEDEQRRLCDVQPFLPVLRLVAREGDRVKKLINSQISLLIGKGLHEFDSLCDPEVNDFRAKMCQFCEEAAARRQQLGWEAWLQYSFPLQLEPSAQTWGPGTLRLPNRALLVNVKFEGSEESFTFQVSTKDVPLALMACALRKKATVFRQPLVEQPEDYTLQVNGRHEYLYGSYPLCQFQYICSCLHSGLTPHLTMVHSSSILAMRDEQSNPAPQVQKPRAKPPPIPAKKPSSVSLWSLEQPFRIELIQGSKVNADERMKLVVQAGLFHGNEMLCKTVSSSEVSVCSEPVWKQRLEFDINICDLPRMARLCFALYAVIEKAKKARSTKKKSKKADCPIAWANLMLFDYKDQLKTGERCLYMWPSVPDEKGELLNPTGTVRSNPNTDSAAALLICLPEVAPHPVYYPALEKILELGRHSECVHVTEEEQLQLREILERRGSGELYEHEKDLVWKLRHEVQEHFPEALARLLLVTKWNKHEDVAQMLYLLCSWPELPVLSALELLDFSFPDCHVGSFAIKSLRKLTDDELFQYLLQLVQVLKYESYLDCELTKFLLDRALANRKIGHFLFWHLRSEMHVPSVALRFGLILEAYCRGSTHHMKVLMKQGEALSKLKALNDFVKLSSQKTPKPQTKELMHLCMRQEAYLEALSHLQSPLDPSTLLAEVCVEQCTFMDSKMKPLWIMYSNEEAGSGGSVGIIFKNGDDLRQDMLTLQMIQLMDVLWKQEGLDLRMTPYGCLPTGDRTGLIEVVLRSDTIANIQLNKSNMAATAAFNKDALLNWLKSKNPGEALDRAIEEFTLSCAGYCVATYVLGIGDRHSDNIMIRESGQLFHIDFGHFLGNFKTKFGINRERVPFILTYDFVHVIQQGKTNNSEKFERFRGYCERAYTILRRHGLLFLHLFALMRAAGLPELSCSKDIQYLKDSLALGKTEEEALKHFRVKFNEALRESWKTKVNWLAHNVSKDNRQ
Chain of PI3Kδ (p110δ/p85α) Recombinant Human Protein (P27986 whole entry partner): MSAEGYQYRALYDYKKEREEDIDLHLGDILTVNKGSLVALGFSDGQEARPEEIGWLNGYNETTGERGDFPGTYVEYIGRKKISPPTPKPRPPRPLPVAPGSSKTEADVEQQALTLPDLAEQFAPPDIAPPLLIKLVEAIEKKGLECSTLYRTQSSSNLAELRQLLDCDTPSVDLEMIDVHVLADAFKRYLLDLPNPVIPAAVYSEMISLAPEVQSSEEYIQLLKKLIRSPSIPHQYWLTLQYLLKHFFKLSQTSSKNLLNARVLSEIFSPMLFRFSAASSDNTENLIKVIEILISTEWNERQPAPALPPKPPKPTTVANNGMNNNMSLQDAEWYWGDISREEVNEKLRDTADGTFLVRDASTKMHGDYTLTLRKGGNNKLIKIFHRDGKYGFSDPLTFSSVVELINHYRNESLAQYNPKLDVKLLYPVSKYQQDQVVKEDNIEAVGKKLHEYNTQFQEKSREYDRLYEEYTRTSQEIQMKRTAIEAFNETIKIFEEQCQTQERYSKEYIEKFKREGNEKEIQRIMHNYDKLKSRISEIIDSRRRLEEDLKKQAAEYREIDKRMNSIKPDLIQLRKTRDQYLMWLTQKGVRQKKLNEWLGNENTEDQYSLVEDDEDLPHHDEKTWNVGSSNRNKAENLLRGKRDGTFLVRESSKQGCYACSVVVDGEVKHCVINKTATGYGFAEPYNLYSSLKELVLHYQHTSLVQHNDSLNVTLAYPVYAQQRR

By IC50 is commonly meant the concentration that inhibits the measured activity by half. In the case of `CO[C@H]1CC[C@H](NS(=O)(=O)c2ccc(C)c(-c3cnc4c(N)ncnn34)c2)CC1` [Example 70, 3-(4-Aminoimidazo[2,1-f][1,2,4]triazin-7-yl)-N-(trans-4-methoxycyclohexyl)-4-methylbenzenesulfonamide], the IC50 in assay [1] is less than 100 nM; in assay [2], 500 to 2000 nM; in assay [3] (Homo sapiens) it was greater than 1000 nM.

Turning to `Cc1ccc(S(=O)(=O)NC23CCC(C(N)=O)(C2)C3)cc1-c1cnc2c(N)ncnn12` [Example 110, 4-(3-(4-Aminoimidazo[1,2-f][1,2,4]triazin-7-yl)-4-methylphenylsulfonamido)bicyclo[2.1.1]hexane-1-carboxamide trifluoroacetate salt], the IC50 is less than 100 nM in assay [1], 100 to 500 nM in assay [2] and greater than 1000 nM in assay [3].

With `Cc1noc(C23CC(NS(=O)(=O)c4ccc(C)c(-c5cnc6c(N)nc(C(F)(F)F)cn56)c4)(C2)C3)n1` [Example 293, 3-(8-Amino-6-(trifluoromethyl)imidazo[1,2-a]pyrazin-3-yl)-4-methyl-N-(3-(3-methyl-1,2,4-oxadiazol-5-yl)bicyclo[1.1.1]pentan-1-yl)benzenesulfonamide trifluoroacetate salt], the IC50 was less than 100 nM in assay [1], 100 to 500 nM in assay [2] and 100 to 500 nM in assay [3] (Homo sapiens).

`Cc1nc(N)c2ncc(-c3ccc(F)c(S(=O)(=O)NC45CC(C#N)(C4)C5)c3)n2n1` [Example 388, 5-(4-Amino-2-methylimidazo[1,2-f][1,2,4]triazin-7-yl)-N-(3-cyanobicyclo[1.1.1]pentan-1-yl)-2-fluorobenzenesulfonamide trifluoroacetate salt]: the IC50 in assay [1] was less than 100 nM; in assay [2], 100 to 500 nM; in assay [3], greater than 1000 nM.

On to `Cc1ccc(S(=O)(=O)N2CCOCC2(C)C)cc1-c1cnc2c(N)ncnn12` [Example 156, 7-(5-((3,3-dimethylmorpholino)sulfonyl)-2-methylphenyl)imidazo[2,1-f][1,2,4]triazin-4-amine], for which the IC50 is less than 100 nM in assay [1], 500 to 2000 nM in assay [2] and 500 to 1000 nM in assay [3] (Homo sapiens).

In the case of `Cc1ccc(S(=O)(=O)N[C@H]2CC[C@H](O)CC2)cc1-c1cn2cc(-c3ccc(C#N)cc3)nc(N)c2n1` [Example 24, 3-[8-Amino-6-(4-cyanophenyl)imidazo[1,2-a]pyrazin-2-yl]-N-(trans-4-hydroxycyclohexyl)-4-methylbenzenesulfonamide], the IC50 in assay [1] is less than 100 nM; in assay [2], less than 100 nM; in assay [3] it was 100 to 500 nM.

With `Cc1ccc(S(=O)(=O)N[C@H]2C[C@H](CO)C2)cc1-c1cnc2c(N)nc(C(F)(F)F)nn12` [Example 323, 3-(4-Amino-2-(trifluoromethyl)imidazo[1,2-f][1,2,4]triazin-7-yl)-N-((1r,3r)-3-(hydroxymethyl)cyclobutyl)-4-methylbenzenesulfonamide trifluoroacetate salt], the results for the 50% inhibitory concentration (IC50) in assay [1], in assay [2] and in assay [3] were less than 100 nM, 100 to 500 nM and less than 100 nM, respectively.

For `Cc1cn2c(-c3cc(S(=O)(=O)NC45CCC(C#N)(C4)C5)ccc3C)cnc2c(N)n1` [Example 263, 3-(8-Amino-6-methylimidazo[1,2-a]pyrazin-3-yl)-N-(4-cyanobicyclo[2.1.1]hexan-1-yl)-4-methylbenzenesulfonamide trifluoroacetate salt], the half-inhibitory concentration (IC50) in assay [1] is less than 100 nM; in assay [2] it was 100 to 500 nM; in assay [3] (Homo sapiens), 100 to 500 nM.

With `Cc1ccc(S(=O)(=O)NCCCO)cc1-c1cnc2c(N)ncnn12` [Example 65, 3-(4-Aminoimidazo[2,1-f][1,2,4]triazin-7-yl)-N-(3-hydroxypropyl)-4-methylbenzenesulfonamide], the figures for the half-maximal inhibitory concentration (IC50) in assay [1], in assay [2] and in assay [3] (Homo sapiens) were less than 100 nM, greater than 2000 nM and greater than 1000 nM, respectively.

For the molecule `Cc1ccc(S(=O)(=O)N2CCCC(C#N)C2)cc1-c1cnc2c(N)nc(C(F)(F)F)cn12` (stereo not drawn) [Example 314, 1-((3-(8-Amino-6-(trifluoromethyl)imidazo[1,2-a]pyrazin-3-yl)-4-methylphenyl)sulfonyl)piperidine-3-carbonitrile], the values for the IC50 in assay [1], in assay [2] and in assay [3] (Homo sapiens) were less than 100 nM, 100 to 500 nM and 100 to 500 nM, respectively.

As for `Cc1ccc(S(C)(=O)=O)cc1-c1cnc2c(N)nc(-c3ccncc3Cl)cn12` [Example 484, 6-(3-Chloropyridin-4-yl)-3-(2-methyl-5-(methylsulfonyl)phenyl)imidazo[1,2-a]pyrazin-8-amine trifluoroacetate], the concentration for half-maximal inhibition (IC50) is less than 100 nM in assay [1], 100 to 500 nM in assay [2] and 100 to 500 nM in assay [3] (Homo sapiens).

Regarding `Cc1ncc(-c2cn3c(-c4cc(S(=O)(=O)N[C@H]5CC[C@H](O)CC5)ccc4C)cnc3c(N)n2)s1` [Example 35, 3-[8-Amino-6-(2-methylthiazol-5-yl)imidazo[1,2-a]pyrazin-3-yl]-N-(trans-4-hydroxycyclohexyl)-4-methylbenzenesulfonamide], the values for the IC50 in assay [1], in assay [2] and in assay [3] (Homo sapiens) were less than 100 nM, 100 to 500 nM and less than 100 nM, respectively.

Regarding `Cc1ccc(S(C)(=O)=O)cc1-c1cnc2c(N)nc(-c3ccc(N)nc3)cn12` [Example 482, 6-(6-Aminopyridin-3-yl)-3-(2-methyl-5-(methylsulfonyl)phenyl)imidazo[1,2-a]pyrazin-8-amine trifluoroacetate], the figures for the IC50 in assay [1], in assay [2] and in assay [3] (Homo sapiens) were less than 100 nM, 500 to 2000 nM and greater than 1000 nM, respectively.

In the case of `Cc1ccc(S(C)(=O)=O)cc1-c1cnc2c(N)nc(-c3cccc(CO)c3F)cn12` [Example 481, (3-(8-Amino-3-(2-methyl-5-(methylsulfonyl)phenyl)imidazo[1,2-a]pyrazin-6-yl)-2-fluorophenyl)methanol], the IC50 is less than 100 nM in assay [1], 100 to 500 nM in assay [2] and 100 to 500 nM in assay [3] (Homo sapiens).

As for `[2H]C([2H])([2H])c1ccc(S(=O)(=O)N2CCCC(CO)C2)cc1-c1cnc2c(N)nc(C(F)(F)F)cn12` (stereo not drawn) [Example 409, (1-((3-(8-Amino-6-(trifluoromethyl)imidazo[1,2-a]pyrazin-3-yl)-4-(methyl-d3)phenyl)sulfonyl)piperidin-3-yl)methanol], the IC50 in assay [1] was less than 100 nM; in assay [2], 100 to 500 nM; in assay [3] (Homo sapiens) it was 100 to 500 nM.

Turning to `Cc1ccc(S(=O)(=O)N(CCC#N)C2CCCC2)cc1-c1cnc2c(N)ncnn12` [Example 165, 3-(4-aminoimidazo[2,1-f][1,2,4]triazin-7-yl)-N-(2-cyanoethyl)-N-cyclopentyl-4-methylbenzenesulfonamide], the IC50 in assay [1] was less than 100 nM; in assay [2], 100 to 500 nM; in assay [3] (Homo sapiens), 500 to 1000 nM.

`Cc1ccc(S(=O)(=O)NC23CCC(O)(CC2)C3)cc1-c1cnc2c(N)nc(C(F)(F)F)cn12` [Example 444, 3-(8-Amino-6-(trifluoromethyl)imidazo[1,2-a]pyrazin-3-yl)-N-(4-hydroxybicyclo[2.2.1]heptan-1-yl)-4-methylbenzenesulfonamide trifluoroacetate salt]: the IC50 in assay [1] was less than 100 nM; in assay [2] it was less than 100 nM; in assay [3] (Homo sapiens), 100 to 500 nM.

Consider `Cc1ccc(S(=O)(=O)N2CC3C(O)C2CN3C2CC(C#N)C2)cc1-c1cnc2c(N)nc(C(F)(F)F)nn12` (stereo not drawn) [Example 354, 3-(5-((3-(4-amino-2-(trifluoromethyl)imidazo[2,1-f][1,2,4]triazin-7-yl)-4-methylphenyl)sulfonyl)-7-hydroxy-2,5-diazabicyclo[2.2.1]heptan-2-yl)cyclobutane-1-carbonitrile], for which the IC50 is less than 100 nM in assay [1], 500 to 2000 nM in assay [2] and greater than 1000 nM in assay [3] (Homo sapiens).

Take `Cc1ccc(S(=O)(=O)NC23CCC(CC#N)(C2)C3)cc1-c1cnc2c(N)ncnn12` [Example 108, 3-(4-Aminoimidazo[1,2-f][1,2,4]triazin-7-yl)-N-(4-(cyanomethyl)bicyclo[2.1.1]hexan-1-yl)-4-methylbenzenesulfonamide trifluoroacetate salt]: the IC50 in assay [1] is less than 100 nM; in assay [2], 100 to 500 nM; in assay [3], 100 to 500 nM.

With `Cc1ccc(S(=O)(=O)N2CCC3(CCOCC3)C2C)cc1-c1cnc2c(N)ncnn12` (stereo not drawn) [Example 206, 7-(2-Methyl-5-((1-methyl-8-oxa-2-azaspiro[4.5]decan-2-yl)sulfonyl)phenyl)imidazo[2,1-f][1,2,4]triazin-4-amine], the IC50 in assay [1] is less than 100 nM; in assay [2], 500 to 2000 nM; in assay [3] (Homo sapiens), greater than 1000 nM.

`Cc1ccc(S(=O)(=O)NCC2(F)CCOCC2)cc1-c1cnc2c(N)ncnn12` [Example 134, 3-(4-aminoimidazo[2,1-f][1,2,4]triazin-7-yl)-N-((4-fluorotetrahydro-2H-pyran-4-yl)methyl)-4-methylbenzenesulfonamide]: the 50% inhibitory concentration (IC50) in assay [1] is less than 100 nM; in assay [2], 500 to 2000 nM; in assay [3] (Homo sapiens) it was 100 to 500 nM.

`Cc1nc(N)c2ncc(-c3cc(S(=O)(=O)NC45CC(C#N)(C4)C5)ccc3C)n2n1` [Example 270, 3-(4-Amino-2-methylimidazo[1,2-f][1,2,4]triazin-7-yl)-N-(3-cyanobicyclo[1.1.1]pentan-1-yl)-4-methylbenzenesulfonamide trifluoroacetate salt]: the half-maximal inhibitory concentration (IC50) in assay [1] was less than 100 nM; in assay [2], 100 to 500 nM; in assay [3], less than 100 nM.
